Measurements from patent US20100286105A1, “METHODS OF TREATING HYPERANDROGENISM AND CONDITIONS ASSOCIATED THEREWITH BY ADMINISTERING A FATTY ACID ESTER OF AN ESTROGEN OR AN ESTROGEN DERIVATIVE” (priority 2006, published 2010).

Experiments:
Assay type in all cases: in vivo, human
humans [1] = assay: Part 1: single oral dose safety and tolerability study of oleoyl-estrone in humans; conditions: one-time single oral dose
Experimental: (§1) A two-part study was conducted to evaluate the safety, tolerability, and pharmacokinetic (PK) profiles of single and multiple doses of oleoyl-estrone in humans.
For the first part of the study, thirty-six subjects where divided into groups of six. Each group was dosed with a single dose of 1, 3, 10, 30, 100, or 150 mg of oleoyl-estrone. Each individual in the group of 6 was randomized to oleoyl-estrone or placebo in a ratio of 2:1 where for every two individuals given oleoyl-estrone one is given a placebo.
(§2) Subjects under went a physical examination to establish height, weight, BMI and baseline signs and symptoms. Electrocardiograms and vital signs were taken. Blood for evaluation of hematology, coagulation and clinical chemistry and urine for urinalysis were obtained for each subject. Samples were also taken for hormone analysis, including estrone, estradiol and testosterone.

humans [2] = assay: Part 2: seven-day daily oral dose safety and tolerability study in humans
Experimental: as §1
(§3) For the second part of the study, […] subjects were divided into […]. Each group was dosed with a single daily dose of 10, 30, 100, or 150 mg oleoyl-estrone for a seven day period. Each individual in the group of 4 was randomized to oleoyl-estrone or placebo.
as §2, with “testosterone. Food-intake and motivation-to-eat using visual analogue scale questionnaires were analyzed.” for “testosterone.”
(§4) Males and post-menopausal females were recruited in both parts of the study. The trial protocol provided that patients should maintain a normal diet and level of activity, but required that patients abstain from consuming alcohol. At baseline, in the placebo group me mean patient weight was 100.5±4.9 kg and BMI 34.4±3.5 and in the oleoyl-estrone group the weight was 100.5±17.8 kg and the average BMI was 34±4.2. The results discussed below are from the second part of the study.

humans [3] = assay: Part 2: hematology and clinical chemistry (white blood cells, lipids, glucose)
Experimental: as §3
as §2, with “testosterone. Food-intake and motivation-to-eat using visual analogue scale questionnaires were analyzed.” for “testosterone.”
as §4

humans [4] = assay: Part 2: hormone levels (estrone, estradiol, testosterone, LH, leptin, CRP); conditions: 7 days daily oral dosing
Experimental: as §3
as §2, with “testosterone. Food-intake and motivation-to-eat using visual analogue scale questionnaires were analyzed.” for “testosterone.”
as §4

[5] = Part 2: pharmacokinetics, plasma concentration of oleoyl-estrone; conditions: for Cmax: 100 mg, 100 mg group (highest)
Experimental: as §3
as §2, with “testosterone. Food-intake and motivation-to-eat using visual analogue scale questionnaires were analyzed.” for “testosterone.”
as §4

humans [6] = assay: Part 2: body weight and food consumption (visual analogue scale questionnaires)
Experimental: as §3
as §2, with “testosterone. Food-intake and motivation-to-eat using visual analogue scale questionnaires were analyzed.” for “testosterone.”
as §4

[7] = oleoyl-estrone treated group, 7 days daily oral dosing

- accumulation in plasma ([5]; Day 7 relative to Day 1, daily oral dosing for 7 consecutive days): no clear accumulation in plasma
- Cmax ([5]; both sexes, human, plasma, oral, Day 1): 2.4 ng/mL
- Cmax ([5]; both sexes, human, plasma, oral, Day 7): 3.2 ng/mL
- concentration at 1 day ([5]; both sexes, human, plasma, oral, Day 1, across dose groups, read-out: oleoyl-estrone plasma levels): 0.3 to 2.4 ng/mL
- concentration at 7 day ([5]; both sexes, human, plasma, oral, Day 7, across dose groups, read-out: oleoyl-estrone plasma levels): 0.3 to 3 ng/mL
- sex differences in plasma concentration-time profiles ([5]; males and post-menopausal females): no clear differences between the sexes
Structure (SMILES): CCCCCCCC/C=C\CCCCCCCC(=O)Oc1ccc2c(c1)CC[C@@H]1[C@@H]2CC[C@]2(C)C(=O)CC[C@@H]12 [oleoyl-estrone, [3(Z)]-3-[(1-oxo-9-octadecenyl)oxy]-estra-1,3,5(10)-trien-17-one]
- safety and tolerability (humans [1]; 1 to 150 mg): safe, well tolerated at oral doses up to 150 mg
- serious adverse events (humans [1]; up to 150 mg): no serious adverse events were noted
- changes in physical examinations, vital signs, ECGs, coagulation or liver function tests (humans [2]; 7 days daily oral dosing): no clinically significant changes
- post-menopausal bleeding (humans [2]; oleoyl-estrone study volunteers, similar episode 6 months prior to dosing): one had post-menopausal bleeding
- adverse effect: back pain (n affected/n treated) (humans [2]; [7]): 4/17
- adverse effect: diarrhea (n affected/n treated) (humans [2]; [7]): 3/17
- adverse effect: headache (n affected/n treated) (humans [2]; [7]): 3/17
- safety and tolerability (humans [2]; single daily oral dose 10-150 mg for seven days, humans): safe, well tolerated at oral doses up to 150 mg
- serious adverse events (humans [2]; single daily oral dose up to 150 mg for seven days, humans): no serious adverse events were noted
- mean HDL cholesterol (humans [3]; 7 days daily oral dosing): increased
- mean LDL cholesterol (humans [3]; 7 days daily oral dosing): decreased
- HDL:LDL cholesterol ratio (humans [3]; 7 days daily oral dosing, even lower doses): increase in the HDL:LDL cholesterol ratio even at the lower doses
- mean glucose concentration (humans [3]; 7 days daily oral dosing, up to Day 15): fell in a reversible and dose dependent manner and was still low at Day 15
- total mean cholesterol (humans [3]; Day 7, 100-150 mg): decrease at Day 7 with 100-150 mg
- white blood cell count (humans [3]; Day 7 and Day 15): increase in white blood cell count was seen in Day 7 but returned to baseline by Day 15
- total mean TAGs (humans [3]; all doses, all days): dose-dependent increase at all doses and on all days
- effects on LH (humans [4]): less clear-cut
- mean estradiol levels (humans [4]): elevated
- mean estrone levels (humans [4]): elevated
- mean testosterone levels (humans [4]): suppressed in a reversible and dose dependent manner
- CRP (humans [4]; to Day 15): increased in a dose-dependent manner, returning to baseline by Day 15
- leptin (humans [4]; to Day 15): increased in a dose-dependent manner, returning to baseline by Day 15
- plasma concentration of oleoyl-estrone versus administered dose level ([5]; 10-150 mg daily oral, assay of limited sensitivity): did not increase with the administered dose level
- dose dependence of VAS scores and loss of weight (humans [6]; 10-150 mg daily for 7 days): more or less dose-dependent, with maximal effects in the 30 mg and 100 mg groups
- feelings of hunger, satiety and prospective food consumption (VAS) (humans [6]; 7 days daily oral dosing): consistently demonstrated reductions
- weight loss compared to placebo (humans [6]; Day 28): greater and maintained
